One test deals with 1A9 cells. Put plainly: In vitro cytotoxicity assay (MTT). The test is classed as cell-based. The following applies: Homo sapiens, 1A9, 72 h, 1A9 cells, 72 hours. As to the method: 1A9 and 1A9PTX22 cells are plated in 96-well plates at 5×10^4 cells/well, plced in a tissue culture incubator and allowed to attach overnight. The next morning, the number of viable cells in the “time 0” plate (3 wells for each cell line) is determined using an MTT assay (Alley M C, et al., Cancer Res. 1988, 48:589-601).
At the same time drugs are added in serial, 10-fold dilutions, to the experimental plates. Corresponding vehicles are added to control plates. Experimental and control plates are then incubated in the tissue culture incubator for 72 hours. After the incubation the number of viable cells is determined in each plate using the MTT assay. IC50s (defined as a concentration of a given compound causing 50% inhibition of cell growth) are determined by comparing cell growth in the drug-treated plate (T−T0) to the cell growth in the corresponding control plate (C−T0). For each experiment results are calculated using average numbers from two sets of plates.
Discodermolide is isolated from the sponge Discodermia dissoluta using the method of Gunasekera SP (supra). Multiple batches of compound of similar purity (all>95% pure, as determined by mass spectrometry, and nuclear magnetic resonance analysis) are used throughout the various studies. For the in vitro cytotoxicity assays all compounds are dissolved in DMSO and are added to the plates with cells to obtain desired concentrations. […] Paclitaxel is purchased from Sigma/Aldrich, (St. Louis, Mo.). For the in vivo hollow fiber assay, solid discodermolide is dissolved in pure ethanol to create a stock solution which is diluted just before dosing with Cremophor EL and D5W to a final concentration of 16.7% Cremophor EL, 8.3% ethanol and 75% D5W. The compound is administered to mice as a single, 15 mg/kg iv injection. Positive control animals receive clinical formulations of paclitaxel (TAXOL) diluted 4-fold with D5W (12.5% Cremophor El, 12.5% ethanol and 75% D5W final concentrations) and administered iv, at 15 mg/kg, once daily for five consecutive days. Vehicle controls are administered according to the corresponding drug schedules.

The test system of the next test is Bcl-xL. Kind of test: Western blot, Bcl-xL phosphorylation. The test is classed as cell-based, human. The following applies: 24 hour treatment. As for the experimental part:
Cells are plated at a density of 1.5×10^6 cells per 100 mm plate. The next day cells are treated with vehicle control (0.1% DMSO) or test compound for 24 h. Cells are harvested by washing monolayers twice with PBS, then lysing with 300 ul of lysis buffer[20 mM Tris (pH 8.0), […], 100 mM NaCl, 0.5% NP40, 0.0125% DOC, 2.5% glycerol, 1 mM vanadate, 25 mM sodium fluoride and protease inhibitor cocktail (1:500 dilution, Sigma)]. Lysates were spun at 12,000× g and the supernatant transferred to a new tube. Protein concentration of the lysates is determined using BCA protein assay Reagent (Pierce). Samples (75 μg) are resolved by SDS-PAGE on a 7.5% or 14% tris-glycine gel for Raf-1 and Bcl-xL, respectively, and transferred to nitrocellulose. Immunodetection is performed as described by Amersham Vistra Fluorescence Western blotting Kit directions with the following modifications: the membrane is blocked with 5% milk (Carnation Non-Fat Dry Milk) in buffer containing 20 mM Tris-HCl (pH=7.4), 100 mM NaCl, and 0.2% Tween 20 (TBST) overnight and is subsequently incubated for 2 h with primary antibody (Santa Cruz C-12 for Raf-1 and Santa Cruz H-62 for Bcl-xL), followed by fluorescein-linked anti-rabbit Ig in 5% milk and anti-fluorescein alkaline phosphatase conjugate in TBST at 1:500 and 1:2000 dilutions, respectively. A Storm 860 (Molecular Dynamics) is used to detect fluorescent product according to the manufacturer's instructions.
A general note: In western blotting, separated proteins are transferred to a membrane and probed.

Another test concerns A549 cells. Put plainly: Antiproliferative assay (MTS). The class given is cell-based, human. As to conditions: 72 h exposure, two independent experiments, read-out: IC50 cell proliferation. As to the method:
A549, a human non-small cell lung carcinoma and MDA-MB-435, a human breast carcinoma, used in this study are obtained from the American Type Culture Collection (ATCC, Rockville, Md., USA). MDA-MB-435 cells are maintained in MEM containing 10% FBS, 1% sodium pyruvate, 1% MEM non-essential amino acids, and 15 mM HEPES (pH=7.4). A549 cells are maintained in RPMI 1640 containing 10% FBS. 1A9, a single-cell clone of the human ovarian carcinoma cell line A2780 and PTX22, the paclitaxel-resistant subline, used in this stdy are obtained from M. Wartman (Novartis Pharmauticals). 1A9 cells and PTX22 cells are maintained in RPMI 1640 supplemented with 10% FBS. PTX22 maintenance media also contained 15 ng/mL paclitaxel and 5 μg/mL verapamil. Drug is removed from the media for 5-7 days before use in an experiment. All maintenance media contained 100 units/mL penicillin and 100 μg/mL streptomycin.
Cell lines are trypsinized and counted using a Coulter counter. Cells were plated in 96 well plates (190 μL/well) at the following densities: 1,000 cells/well for A549 and 3,000 cells/well for MDA-MB-435. The number of cells plated results in cell densities of 75-90% confluence by the time of harvest. Plates are seeded on day 0. On day 1 test compounds are added to triplicate wells in a final volume of 10 μL media. Initial cell density for each cell line is measured on day 1 by adding 10 μL MTS mixture (see below), incubating for 4 h and recording absorbance at 490 nm (A490). Two or three days after test compound addition, 10 μL/well of MTS mixture is added to the test plates and A490 was read 4 h later. A490 values for wells containing cells are corrected for media absorbance, then normalized to initial density readings to determine percent net growth. Percent net growth is calculated as (A490+drug−A490 initial)/(A490—drug—A490 initial). Graphs of percent net growth as a function of compound concentration are used to calculate concentrations resulting in 50% growth inhibition (IC50). MTS mixture is prepared fresh on day of addition to cell plates at a ratio of 10 μL of a 0.92 mg/mL solution of phenazine methosulfate (PMS) to 190 μL of a 2 mg/mL solution of MTS (3-(4,5-dimethylthiazol-2-yl)-5-(3-carboxymethoxyphenyl)-2-(4-sulfophenyl)-2H-tetrazolium, inner salt). PMS and MTS solutions are prepared in buffered saline containing 0.2 g/L KCl, 8.0 g/L NaCl, 0.2 g/L KH2PO4, 1.15 g/L Na2HPO4, 133 mg/L CaCl2.2H2O, 100 mg/L MgCl2.6H2O, (pH=7.35) and stored as foil-wrapped aliquots at −20° C. Test compounds are prepared as stock solutions in DMSO. Test compound dilutions are made in 2% DMSO/cell maintenance media and diluted into assay plates to give 0.1% DMSO final in all wells.

This is an account of results in patent publication US6774143B1, “Method for treating cells resistant to antineoplastic agents” (Novartis AG, priority 2003, dated 2004).

Structures are written as SMILES. Converted amounts (≈) assume the structure as drawn. Like-named read-outs stand apart in the source and are kept apart here.

As for `C=C/C=C\[C@H](C)[C@H](OC(N)=O)[C@@H](C)[C@H](O)[C@@H](C)C/C(C)=C\[C@H](C)[C@@H](O)[C@@H](C)/C=C\[C@@H](O)C[C@@H]1OC(=O)[C@H](C)[C@@H](O)[C@H]1C` [discodermolide, (+)-Discodermolide], the IC50 in the test on 1A9 cells (first experiment) was found to be 6 ng/mL (≈ 10.1 nM); in the test with 1A9 cells (second experiment), 3 ng/mL (≈ 5.05 nM); with A549 cells it was 60 nM; in the test on A549 cells (Homo sapiens, A549, 72 h), 45 nM. Further, the Bcl-xL phosphorylation entry with Bcl-xL (A549 cells) and in the test on Bcl-xL (MDA-MB-435 cells) was “phosphorylated” each time.

Regarding `CC(=O)O[C@H]1C(=O)[C@@]2(C)[C@H]([C@H](OC(=O)c3ccccc3)[C@]3(O)C[C@H](OC(=O)[C@H](O)[C@@H](NC(=O)c4ccccc4)c4ccccc4)C(C)=C1C3(C)C)[C@]1(OC(C)=O)CO[C@@H]1C[C@@H]2O` [paclitaxel, reference compound], the IC50 in the test on 1A9 cells (first experiment, read-out: IC50) was 0.8 ng/mL (≈ 0.937 nM); with 1A9 cells (second experiment, read-out: IC50), 0.4 ng/mL (≈ 0.468 nM). Moreover, the Bcl-xL phosphorylation entry with Bcl-xL (A549 cells) and in the test on Bcl-xL (MDA-MB-435 cells) was “phosphorylated” each time.
